{"source": "paper PMC11470524", "about": "“A venom peptide-induced NaV channel modulation mechanism involving the interplay between fixed channel charges and ionic gradients” (The Journal of Biological Chemistry, 2024)", "key": {"NaV channels": {"tested_on": "NaV channels", "conditions": "cited from earlier work"}, "human NaV1.7 channel [1]": {"target": "T1, human NaV1.7 channel (Homo sapiens, UniProt Q15858)", "T1 sequence (Q15858 whole entry)": "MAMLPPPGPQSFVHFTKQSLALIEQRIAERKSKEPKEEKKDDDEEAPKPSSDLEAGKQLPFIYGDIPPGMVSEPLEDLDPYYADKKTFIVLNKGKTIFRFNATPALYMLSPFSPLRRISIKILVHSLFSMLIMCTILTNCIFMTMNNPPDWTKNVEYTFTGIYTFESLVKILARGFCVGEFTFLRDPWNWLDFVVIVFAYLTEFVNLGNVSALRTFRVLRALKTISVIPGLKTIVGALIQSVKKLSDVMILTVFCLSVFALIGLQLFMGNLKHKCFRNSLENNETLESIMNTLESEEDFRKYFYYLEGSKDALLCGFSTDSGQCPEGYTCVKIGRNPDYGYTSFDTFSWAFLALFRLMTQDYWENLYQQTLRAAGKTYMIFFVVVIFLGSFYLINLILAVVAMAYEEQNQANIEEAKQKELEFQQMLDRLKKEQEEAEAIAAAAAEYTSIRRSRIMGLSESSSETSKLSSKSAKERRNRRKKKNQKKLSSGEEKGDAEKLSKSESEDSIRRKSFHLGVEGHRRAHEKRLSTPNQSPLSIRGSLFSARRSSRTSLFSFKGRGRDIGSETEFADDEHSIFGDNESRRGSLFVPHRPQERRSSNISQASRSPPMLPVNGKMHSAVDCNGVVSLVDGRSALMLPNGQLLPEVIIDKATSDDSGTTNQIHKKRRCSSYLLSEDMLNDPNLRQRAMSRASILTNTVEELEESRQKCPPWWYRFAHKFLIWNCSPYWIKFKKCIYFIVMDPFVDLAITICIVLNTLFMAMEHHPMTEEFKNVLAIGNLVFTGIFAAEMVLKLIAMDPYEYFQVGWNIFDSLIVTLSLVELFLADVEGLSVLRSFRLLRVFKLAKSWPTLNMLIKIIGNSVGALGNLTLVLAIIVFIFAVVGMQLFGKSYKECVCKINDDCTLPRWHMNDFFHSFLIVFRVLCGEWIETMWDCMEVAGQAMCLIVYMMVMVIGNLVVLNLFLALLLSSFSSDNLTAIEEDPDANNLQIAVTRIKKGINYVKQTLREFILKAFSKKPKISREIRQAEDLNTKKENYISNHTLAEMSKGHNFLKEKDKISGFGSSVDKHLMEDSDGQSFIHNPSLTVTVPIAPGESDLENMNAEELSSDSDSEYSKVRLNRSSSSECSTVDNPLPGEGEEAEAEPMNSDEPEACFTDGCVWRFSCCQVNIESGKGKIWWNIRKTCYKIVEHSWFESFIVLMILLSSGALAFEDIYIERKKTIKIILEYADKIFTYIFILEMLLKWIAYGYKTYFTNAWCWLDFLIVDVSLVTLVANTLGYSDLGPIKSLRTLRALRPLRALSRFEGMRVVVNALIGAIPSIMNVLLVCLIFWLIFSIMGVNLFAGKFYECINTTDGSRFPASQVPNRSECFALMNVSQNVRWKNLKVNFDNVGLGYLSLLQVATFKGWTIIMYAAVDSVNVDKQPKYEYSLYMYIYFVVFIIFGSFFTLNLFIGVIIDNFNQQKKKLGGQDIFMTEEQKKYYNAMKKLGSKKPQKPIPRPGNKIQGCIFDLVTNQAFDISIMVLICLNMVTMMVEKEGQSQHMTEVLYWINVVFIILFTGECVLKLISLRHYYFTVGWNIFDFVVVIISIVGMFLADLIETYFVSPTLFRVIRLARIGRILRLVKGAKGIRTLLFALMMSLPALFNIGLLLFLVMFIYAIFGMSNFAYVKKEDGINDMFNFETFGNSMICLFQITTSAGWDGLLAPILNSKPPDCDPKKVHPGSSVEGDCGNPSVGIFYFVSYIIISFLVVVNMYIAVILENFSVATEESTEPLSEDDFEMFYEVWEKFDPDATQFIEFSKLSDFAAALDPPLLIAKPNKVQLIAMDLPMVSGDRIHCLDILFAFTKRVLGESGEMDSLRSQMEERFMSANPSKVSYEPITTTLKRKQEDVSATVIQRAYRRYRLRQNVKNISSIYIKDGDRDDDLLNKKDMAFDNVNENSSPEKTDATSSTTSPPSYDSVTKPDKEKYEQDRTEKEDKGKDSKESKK", "assay": "Cumulative concentration-response, persistent (non-inactivating) current I40ms/Ipeak, NaV1.7", "assay_type": "cell-based", "conditions": "NaV1.7, HEK293, ratio of current at 40 ms to peak current, mean ± SD"}, "human NaV1.7 channel [2]": {"target": "T1, human NaV1.7 channel", "assay": "Whole-cell current-voltage (I-V) relationship, NaV1.7, standard solution", "assay_type": "cell-based", "method": "Data are expressed as mean ± SD.\nWhole-cell current-voltage (I-V) recordings were recorded with an EPC 10 USB Heka patch clamp amplifier or an Axon 700B amplifier (Axon Instruments). Currents were filtered (−3 dB, 4-pole Bessel) at 2 kHz and sampled at 50 kHz. […] Leak subtraction was done using a p/4 protocol (4 pulses at a delay of 100 μs). Cell responses were accepted for analysis if the series resistance was ≤ 12 MΩ and was compensated for by ≥ 60%. […] The extracellular solution contained (in mM): 140 NaCl, 5 KCl, 1 MgCl2, 10 Hepes, and 10 D-glucose, adjusted to pH 7.4 with NaOH, whereas the intracellular solution contained (in mM) the following: 140 CsCl, 10 NaCl, 2 10 Hepes, and 5 EGTA adjusted to pH 7.4 with CsOH.\nWhole-cell conductance (G) was calculated using the following relation.(1) G=I/(Vm−Vrev) Where, I is the peak current, Vm is the corresponding step voltage and Vrev is the reversal potential (potential where current direction changes)."}}, "note": "Like-named read-outs stand apart in the source and are kept apart here. Where no end group is shown, it is not given here.", "data": [{"compound": "COc1ccc(C(=O)O[C@H]2CC[C@@]3(C)[C@@H]4CC[C@H]5[C@]6(O)C[C@H](O)[C@@]7(O)[C@@H](CN8C[C@@H](C)CC[C@H]8[C@@]7(C)O)[C@]6(O)C[C@@]53O[C@]24O)cc1OC", "note": "[veratridine]", "values": [{"measurement": "Effect on NaV channels", "setting": "NaV channels; ref [15], [17], [18]", "value": "direct channel activators (agonists)"}]}, {"compound": "ProTx-II: tarantula toxin", "values": [{"measurement": "Effect on NaV channels", "setting": "NaV channels; ref [20], [21]", "value": "inhibit NaV channel currents by stabilizing S4 helices in the resting state"}]}, {"compound": "huwentoxin-IV", "values": [{"measurement": "Effect on NaV channels", "setting": "NaV channels; ref [20], [21]", "value": "inhibit NaV channel currents by stabilizing S4 helices in the resting state"}]}, {"compound": "batrachotoxin", "values": [{"measurement": "Effect on NaV channels", "setting": "NaV channels; ref [15], [17], [18]", "value": "direct channel activators (agonists)"}, {"measurement": "Effect on ion selectivity", "setting": "NaV channels; ref [15], [17]", "value": "alter ion selectivity"}]}, {"compound": "LAPIFALLLLSGLFSLPALQHYIAANYIN-NH2 [Ta3a[E24A + K25A]]", "values": [{"measurement": "Efficacy (maximum response), I40ms/Ipeak", "setting": "human NaV1.7 channel [1]", "value": "0.35 ± 0.33"}, {"measurement": "I-V profile versus control", "setting": "human NaV1.7 channel [2]; 30 nM analog, n = 4 cells", "value": "indistinguishable from control"}, {"measurement": "Leftward shift of V1/2", "setting": "human NaV1.7 channel [2]; 1 μM analog, n = 7 cells", "value": "−4.5", "unit": "mV"}, {"measurement": "Leftward shift of Vrev", "setting": "human NaV1.7 channel [2]; 1 μM analog, n = 7 cells", "value": "−28", "unit": "mV"}, {"measurement": "Reduction in peak current", "setting": "human NaV1.7 channel [2]; 1 μM analog, n = 7 cells", "value": "~2", "unit": "fold"}]}]}
